Experimental data taken from patent publication EP4458804A1, “METHOD FOR PRODUCING AN OBJECT, PHENALEN-1-ONE COMPOUND AND USE THEREOF” (TriOptoTec GmbH, priority 2023, dated 2024).

Experiment: Comparative example 26: highly polar photocatalysts in TPU films, 24 h immersion, film absorption before/after leaching
Assay type: physicochemical
Conditions: 30 min impregnation, 20h airing, immersion in distilled water 24h (procedure A), film absorption maximum before/after
Procedure: Es wurden TPU Folien eingesetzt und mit Imprägnierlösungen enthaltend die folgenden Farbstoffe behandelt. Nach 30 min Einwirkzeit wurden homogen gefärbte Folien erhalten.
Die Ablüftzeit nach Behandlung betrug 20h.
Anschließend wurde ein Belastungstest Immersion mit destilliertem Wasser über 24h durchgeführt (siehe oben beschriebenes Verfahren A) ). Die Folien wurden durch Absorptionsspektroskopie direkt vermessen und die Maximum der Absorption vor/nach Auswaschen verglichen. Es ergaben sich folgende relative Werte, die auf einen starken Austrag der Photokatalysatoren schließen lassen. Die Ergebnisse sind in der Tabelle 63 dargestellt. Tabelle 63: Einbindung von Photokatalysatoren in Kunsttofffolien
With “2,7,12-Tris(pyridinio-p-tolyl)-17-(p-(methoxymethyl)phenyl) porphycen bromid” the “Verlust durch Auswaschen” value was over 66%.
In the case of `O=C1C=Cc2cccc3cccc1c23` [Phenalen-1-on (Verb.Bsp. 48)], the “Verlust durch Auswaschen” value is reported as over 50%.
With `Cl.Cl.Cl.Cl.Cl.Cl.NCCOc1cc(/C=C/C(=O)CC(=O)/C=C/c2cc(OCCN)c(OCCN)c(OCCN)c2)cc(OCCN)c1OCCN` [SACUR-05] the “Verlust durch Auswaschen” value was over 70%.
